Assay results taken from publication PMC7887271, “Fast acting allosteric phosphofructokinase inhibitors block trypanosome glycolysis and cure acute African trypanosomiasis in mice” (Nature Communications, 2021).
Several values for one entry are separate records, joined by “and”; a condition that tells them apart may be missing. Equal entries are not always repeated. Where two headings read alike, the source gives them in different places.

Columns and labels:
CYP2C19 = molecular target: T1, CYP2C19 (Homo sapiens, UniProt P33261); test: Inhibition of CYP2C19; format: in vitro ADME; conditions: CYP450 isoform inhibition kit (BD Biosciences), probe CEC
T1 construct: purchased BD Biosciences
T1 sequence (P33261 whole entry, canonical isoform): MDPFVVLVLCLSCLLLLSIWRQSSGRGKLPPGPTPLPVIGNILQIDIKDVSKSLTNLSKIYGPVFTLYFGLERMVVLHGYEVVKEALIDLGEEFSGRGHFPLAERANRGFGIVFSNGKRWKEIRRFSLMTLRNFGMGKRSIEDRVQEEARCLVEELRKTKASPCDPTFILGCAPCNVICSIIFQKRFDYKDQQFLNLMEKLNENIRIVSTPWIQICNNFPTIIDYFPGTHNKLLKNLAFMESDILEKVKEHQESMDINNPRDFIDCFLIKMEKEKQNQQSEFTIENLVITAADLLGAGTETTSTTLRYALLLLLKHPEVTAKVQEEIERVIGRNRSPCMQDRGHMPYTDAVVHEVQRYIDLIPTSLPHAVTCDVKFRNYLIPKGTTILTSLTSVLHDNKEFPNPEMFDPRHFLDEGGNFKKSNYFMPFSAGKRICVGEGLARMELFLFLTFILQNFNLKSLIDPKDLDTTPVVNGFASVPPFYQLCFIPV
Experimental: A HepG2 cytotoxicity assay was used to determine a cellular selectivity index. HepG2 cells were seeded into 96-well plates in EMEM medium. Compounds were assessed for their effect upon cellular viability (Supplementary Methods 5.1). Inhibition of CYP450 was determined using kits from BD Biosciences (Supplementary Methods 5.2). Metabolic stability was determined using mouse […] tested at a single concentration of 5 µM. Plasma protein binding was determined using mouse and human plasma at a single concentration of 10 µM (Supplementary Methods 5.4). All PK studies in mice were carried out by Pharmidex (Supplementary Methods 6.1).
The compounds were investigated for their inhibitory effect on cytochrome P450 (CYP450) activity using five CYP450 isoforms (with fluorescent substrates in brackets): 3A4 (two substrates, BFC and DBF), 2D6 (AMMC), 2C9 (MFC), 2C19 (CEC) and 1A2 (CEC). Kits from BD Biosciences were used along with the method described by the manufacturer. […] Fluorescence was measured using a SpectraMax M5 plate reader.

[1] = molecular target: T2, T. brucei phosphofructokinase (TbPFK) (Trypanosoma brucei brucei, UniProt O15648); test: ADP-Glo assay for measuring PFK inhibition; format: biochemical; conditions: for RLU, avg / RLU, individual replicates: SuppFig1
T2 construct: made in house; host or cells: Escherichia coli C41 (pET28a, codon optimised gene)
T2 sequence (O15648 1-487): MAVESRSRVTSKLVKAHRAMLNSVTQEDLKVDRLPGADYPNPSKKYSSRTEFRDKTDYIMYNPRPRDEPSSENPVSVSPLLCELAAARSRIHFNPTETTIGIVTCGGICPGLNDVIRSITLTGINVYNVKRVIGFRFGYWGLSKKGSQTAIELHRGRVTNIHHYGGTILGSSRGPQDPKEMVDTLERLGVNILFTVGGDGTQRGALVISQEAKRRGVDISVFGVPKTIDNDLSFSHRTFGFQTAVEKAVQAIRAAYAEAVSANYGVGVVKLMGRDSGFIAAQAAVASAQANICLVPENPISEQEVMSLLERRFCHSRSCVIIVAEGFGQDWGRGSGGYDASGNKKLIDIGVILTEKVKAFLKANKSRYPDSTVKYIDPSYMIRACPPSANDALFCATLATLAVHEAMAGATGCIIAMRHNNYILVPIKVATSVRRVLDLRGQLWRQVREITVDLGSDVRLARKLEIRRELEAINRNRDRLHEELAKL
Experimental: Parasite enzyme kinetic data were measured using N-terminally His6-tagged TbPFK expressed in Escherichia coli C41 cells, using a codon optimised gene inserted in a pET28a vector (Supplementary Methods 1). Recombinant human PFKs were expressed in PFK-deficient Saccharomyces cerevisiae. PFK enzyme inhibition was measured using an ADP-Glo^TM assay (Promega) in a 96-well plate format (Supplementary Methods 2.1), using a Spectramax© M5 Multimode Plate Reader to measure luminescence values which were converted to ADP concentrations. IC50 values were determined using a sigmoidal curve fitting algorithm in Kaleidagraph 4 (Supplementary Fig. 1). Mode of action studies were carried out using a linked enzyme assay coupling the forward reaction of TbPFK to the M1 isoform of human pyruvate kinase followed by lactate dehydrogenase. The change in UV absorbance at 340 nm resulting from the conversion of NADH to NAD^+ was measured at 25 °C in ‘kinetic mode’ on a Spectramax© M5 Multimode plate reader. Initial velocities were plotted against substrate concentration to give curves showing non-competitive inhibition (Supplementary Fig. 2). An alternative linked enzyme assay was developed to control for the potential inhibitory activity of ATP on human PFK (Supplementary Methods 2.3).
The ADP-Glo™ end-point assay kit manufactured by Promega (cat. No. V9102) was used to measure ADP produced in the phosphofructokinase reaction:
Following this kinase reaction, the addition of a reagent results in any unused background ATP being removed and the reaction is sequestered. A second reagent is then added to convert the remaining ADP to ATP which is coupled to the luciferase/luciferin reaction to produce light. ‘Ultrapure’ ATP and ADP from Promega were used to reduce background noise. All reagents additional to those provided in the Promega ADP-Glo™ kit were purchased from Sigma-Aldrich.
The assay buffer comprised 50 mM triethanolamine (TEA), 10 mM MgCl2, 5 mM KCl, 0.1% w/v bovine serum albumin (BSA), 0.005% Tween-20, 1% DMSO, pH 7.4. A 3-fold serial dilution of 250x inhibitor stocks was carried out in 100% DMSO. 2 µl of these dilutions was added to 198 µl assay buffer and mixed well using a multichannel pipette. […] Concentration ranges of inhibitor compounds were 40 - 0.006 µM (final concentration, 1% DMSO). The PFK reaction in the presence of inhibitor was carried out using 10 µl of 1 µg/ml PFK (final concentration 0.4 µg/ml) which was added to 10 µl of the 1% DMSO inhibitor compound serial dilutions in a white, non-binding 96-well plate (Greiner BioOne 655904). CTCB-001 was used as a positive control at a final concentration of 5 µM. Assay buffer containing 1% DMSO was added instead of inhibitor compound for the negative control. The protein/inhibitor mixture was incubated for 10 minutes at room temperature (RT). The kinase reaction was started by adding a 5x ATP/F6P stock in assay buffer (final concentrations 0.5 mM F6P and 0.1 mM ATP). Plates were then sealed, centrifuged at 560 x g for 30 seconds and incubated at RT for 30 minutes. 25 µl of ‘ADP-Glo™ Reagent’ was then added to each well, mixed using a multichannel pipette and incubated at room temperature for 40 minutes. 50 µl of ‘Kinase Detection Reagent’ was added and incubated for 50 minutes at RT. The luminescence was recorded using a Spectramax© M5 Multi-mode Plate Reader (Molecular Devices) in single-point mode, with an integration time of 750 milliseconds. The luminescence values were converted to ADP concentration using a standard calibration curve for ADP. The resulting ADP concentrations were plotted as a function of inhibitor compound concentration using Kaleidagraph 4.0 software. The data were analysed using non-linear regression and a sigmoidal curve was fitted (Supplementary Figure 1) to determine the IC50. Kaleidagraph 4.0 uses the Levenberg-Marquardt algorithm in an iterative procedure to fit non-linear curves. […] The slope of the curve at the midpoint (m4) was set to 1.

[2] = source data for Fig. 2 and Table 1, read-out: Average IC50
[3] = source data, read-out: IC50 (µM), single dated measurement
[4] = ADP-Glo, mean ± SD, read-out: IC50 (µM) for inhibition of T. brucei phosphofructokinase (PFK IC50)

`CN(C)CCn1ccc2c(ccn2Cc2ccc(Cl)c(Br)c2)c1=O` [CTCB-470, 1-[(3-Bromo-4-chlorophenyl)methyl]-5-[2-(dimethylamino)ethyl] pyrrolo[3,2-c]pyridin-4-one] was tested, and the inhibition at 10 µM (CYP2C19) was 45%, the IC50 [1, 2] was 0.21 µM and the IC50 [1, 3] was 0.137 µM and 0.154 µM and 0.209 µM and 0.359 µM.
`CN(C)CCn1ccc2c(ccn2Cc2ccc(F)c(Br)c2)c1=O` [CTCB-508, 1-[(3-Bromo-4-fluorophenyl)methyl]-5-[2-(dimethylamino)ethyl] pyrrolo[3,2-c]pyridin-4-one] was tested, and the IC50 [1, 4] was 0.2 ± 0.05 µM and the IC50 [1, 3] was 0.13 µM and 0.229 µM and 0.25 µM.
With `CN(C)CCn1ccc2c(ccn2Cc2ccc(Cl)c(Cl)c2)c1=O` [CTCB-405, 1-[(3,4-Dichlorophenyl)methyl]-5-[2-(dimethylamino)ethyl] pyrrolo[3,2-c]pyridin-4-one] the inhibition at 10 µM (CYP2C19) was 64%, the IC50 [1, 4] was 0.18 ± 0.03 µM and the IC50 [1, 3] was 0.209 µM and 0.202 µM and 0.134 µM and 0.19 µM.
For `CN(C)CCn1ccc2c(ccn2Cc2ccc(Cl)c(Cl)c2)c1=O` [CTCB 405], the “RLU, avg” value ([1]; Conc 0.00640146 uM) was 39926.3 RLU, the “RLU, individual replicates” value ([1]; Conc 0.00640146 uM) was 40029.2 RLU and 39823.3 RLU and the “RLU, avg” value ([1]; Conc 0.0192044 uM) was 39977.3 RLU. The “RLU, individual replicates” value ([1]; Conc 0.0192044 uM) was 42153.7 RLU and 37800.9 RLU, the “RLU, avg” value ([1]; Conc 0.0576132 uM) was 34288.1 RLU and the “RLU, individual replicates” value ([1]; Conc 0.0576132 uM) was 36858 RLU and 31718.2 RLU. For the same compound, the “RLU, avg” value ([1]; Conc 0.17284 uM) was 23285 RLU, the “RLU, individual replicates” value ([1]; Conc 0.17284 uM) was 25069.7 RLU and 21500.2 RLU and the “RLU, avg” value ([1]; Conc 0.518519 uM) was 10488.4 RLU. The “RLU, individual replicates” value ([1]; Conc 0.518519 uM) was 11745.9 RLU and 9230.85 RLU, the “RLU, avg” value ([1]; Conc 1.55556 uM) was 4498.05 RLU and the “RLU, individual replicates” value ([1]; Conc 1.55556 uM) was 4537.49 RLU and 4458.6 RLU. For the same compound, the “RLU, avg” value ([1]; Conc 4.66667 uM) was 2709.41 RLU, the “RLU, individual replicates” value ([1]; Conc 4.66667 uM) was 2899.92 RLU and 2518.91 RLU and the “RLU, avg” value ([1]; Conc 14 uM) was 1717.44 RLU. The “RLU, individual replicates” value ([1]; Conc 14 uM) was 1947.39 RLU and 1487.48 RLU.
With `CNCCn1ccc2c(ccn2Cc2ccc(Cl)c(Cl)c2)c1=O` [CTCB-435] the IC50 [1, 2] was 0.12 µM and the IC50 [1, 3] was 0.111 µM and 0.127 µM.
